Results on one compound are retold here after US11591323B2, “Muscarinic agonists as non-steroidal and non-opioid analgesics and methods of use thereof” (Barry University, priority 2019, dated 2023).

For the test, the system named is rat aorta smooth muscle cells (mainly M2, lesser M3). The test can be described thus: IPX level in primary culture of rat aorta smooth muscle cells. It counts as cell-based. The conditions noted are these: in words. How it is done: Effects of compounds 6A and 7A on both cAMP and IPX levels were also measured in primary cultures of rat aorta smooth muscle cells that express mainly M2 and to a lesser extent M3 receptors (FIG. 6). […] Receptor expression levels are far lower in tested native tissues than in transfected cell lines and vary among tissues, being highest in the striatum and lowest in the submaxillary gland. Relative expression levels of G-proteins are also known to vary among tissues and cell lines. Thus, it is great to see that the pharmacological profile of the new compounds is conserved despite these variations.
Cell culture and membrane preparation: Chinese hamster ovary (CHO) cells stably transfected with the genes of individual human variants of muscarinic receptors were purchased from Missouri S&T cDNA Resource Center (Rolla, Mo., USA). Fresh primary cell culture of smooth muscle cells (SMC) from rat aorta prepared as previously described was kindly provided by Dr. Lucie Bačáková. […]
Measurements of the production of cAMP and inositol phosphates: Levels of second messengers cAMP and inositol phosphates were determined in radiochemical chromatography assays as described previously. […] Samples were applied to alumina columns (1.5 g of alumina per column), washed with 2 ml ammonium acetate (pH=7.0) and eluted from columns with 4 ml ammonium acetate and measured by liquid scintillation spectrometry. […]

Regarding `C[N+](C)(C)CCOC(N)=O` [carbachol, reference compound], the IPX level entry was “increase in IPX level”.
